# Source: ChEMBL document CHEMBL5532698, “2,3-Dihydroquinazolin-4(1H)-ones and quinazolin-4(3H)-ones as broad-spectrum cytotoxic agents and their impact on tubulin polymerisation” (RSC Med Chem, 2024)
# How the values were obtained:
# [1] = test system: HT-29; test: Antiproliferative activity against human HT-29 cells assessed as cell growth inhibition incubated for 72 hrs by MTT assay; type: functional
# [2] = test system: U-87 MG; test: Antiproliferative activity against human U87 cells assessed as cell growth inhibition incubated for 72 hrs by MTT assay; type: functional, U-87MG ATCC
# [3] = test system: MCF7; test: Antiproliferative activity against human MCF7 cells assessed as cell growth inhibition incubated for 72 hrs by MTT assay; type: functional
# [4] = test system: A2780; test: Antiproliferative activity against human A2780 cells assessed as cell growth inhibition incubated for 72 hrs by MTT assay; type: functional
# [5] = test system: NCI-H460; test: Antiproliferative activity against human NCI-H460 cells assessed as cell growth inhibition incubated for 72 hrs by MTT assay; type: functional
# [6] = test system: A-431; test: Antiproliferative activity against human A-431 cells assessed as cell growth inhibition incubated for 72 hrs by MTT assay; type: functional
# [7] = test system: DU-145; test: Antiproliferative activity against human DU-145 cells assessed as cell growth inhibition incubated for 72 hrs by MTT assay; type: functional
# [8] = test system: BE(2)-C; test: Antiproliferative activity against human BE2C cells assessed as cell growth inhibition incubated for 72 hrs by MTT assay; type: functional
# [9] = Antiproliferative activity against human SJG2 cells assessed as cell growth inhibition incubated for 72 hrs by MTT assay; type: functional; details: SJ-G2
# [10] = test system: MIA PaCa-2; test: Antiproliferative activity against human MIA PaCa-2 cells assessed as cell growth inhibition incubated for 72 hrs by MTT assay; type: functional
# [11] = Cytotoxicity against human MCF-10A cells assessed as cell growth inhibition incubated for 72 hrs by MTT assay; type: toxicity, cell-based
# [12] = test system: HT-29; test: Antiproliferative activity against human HT-29 cells assessed as cell growth inhibition at 25 uM incubated for 72 hrs by MTT assay relative to control; type: functional
# [13] = test system: U-87 MG; test: Antiproliferative activity against human U87 cells assessed as cell growth inhibition at 25 uM incubated for 72 hrs by MTT assay relative to control; type: functional, U-87MG ATCC
# [14] = test system: MCF7; test: Antiproliferative activity against human MCF7 cells assessed as cell growth inhibition at 25 uM incubated for 72 hrs by MTT assay relative to control; type: functional
# [15] = test system: A2780; test: Antiproliferative activity against human A2780 cells assessed as cell growth inhibition at 25 uM incubated for 72 hrs by MTT assay relative to control; type: functional
# [16] = test system: NCI-H460; test: Antiproliferative activity against human NCI-H460 cells assessed as cell growth inhibition at 25 uM incubated for 72 hrs by MTT assay relative to control; type: functional
# [17] = test system: A-431; test: Antiproliferative activity against human A-431 cells assessed as cell growth inhibition at 25 uM incubated for 72 hrs by MTT assay relative to control; type: functional
# [18] = test system: DU-145; test: Antiproliferative activity against human DU-145 cells assessed as cell growth inhibition at 25 uM incubated for 72 hrs by MTT assay relative to control; type: functional
# [19] = test system: BE(2)-C; test: Antiproliferative activity against human BE2C cells assessed as cell growth inhibition at 25 uM incubated for 72 hrs by MTT assay relative to control; type: functional
# [20] = Antiproliferative activity against human SJG2 cells assessed as cell growth inhibition at 25 uM incubated for 72 hrs by MTT assay relative to control; type: functional; details: SJ-G2
# [21] = test system: MIA PaCa-2; test: Antiproliferative activity against human MIA PaCa-2 cells assessed as cell growth inhibition at 25 uM incubated for 72 hrs by MTT assay relative to control; type: functional
# [22] = Cytotoxicity against human MCF-10A cells assessed as cell growth inhibition at 25 uM incubated for 72 hrs by MTT assay relative to control; type: toxicity, cell-based
Compound,GI50 [1] [µM],GI50 [2] [µM],GI50 [3] [µM],GI50 [4] [µM],GI50 [5] [µM],GI50 [6] [µM],GI50 [7] [µM],GI50 [8] [µM],GI50 [9] [µM],inhibition at 25 µM [12] [%],inhibition at 25 µM [13] [%],inhibition at 25 µM [14] [%],inhibition at 25 µM [15] [%],inhibition at 25 µM [16] [%],inhibition at 25 µM [17] [%],inhibition at 25 µM [18] [%],inhibition at 25 µM [19] [%],inhibition at 25 µM [20] [%],inhibition at 25 µM [21] [%],"inhibition at 72 h, 25 µM [22] [%]",further results
O=C1NC(c2ccc(Br)o2)Nc2ccccc21 (stereo not drawn),,,,,,,,,,< 10,< 10,13,37,< 10,< 10,< 10,20,12,< 10,< 10,
O=C1NC(c2ccc3nsnc3c2)Nc2ccccc21 (stereo not drawn),,,,,,,,,,35,< 10,49,60,21,25,22,64,29,22,41,
O=C1NC(c2ccccc2C(=O)O)Nc2ccccc21 (stereo not drawn),,,,,,,,,,37,< 10,49,48,43,22,20,19,49,20,20,
O=C1NC(C2CCCCC2)Nc2ccccc21 (stereo not drawn),,,,,,,,,,23,10,18,41,< 10,22,18,32,< 10,12,8,
O=C1NC(c2c[nH]c3ccccc23)Nc2ccccc21 (stereo not drawn),,,,,,,,,,≥ 84,70,78,94,87,≥ 79,≥ 77,89,> 100,79,90,
Oc1nc(-c2ccncc2)nc2ccccc12,,,,,,,,,,11,< 10,< 10,< 10,15,< 10,< 10,< 10,< 10,10,< 10,
O=C1NC(c2cc(O)c(O)c(O)c2)Nc2ccccc21 (stereo not drawn),,,,,,,,,,49,29,56,36,19,21,40,27,10,34,51,
O=C(O)c1ccc(C2NC(=O)c3ccccc3N2)cc1 (stereo not drawn),,,,,,,,,,18,13,41,< 10,< 10,< 10,36,12,10,14,8,

# Further lines, with some results ahead:
GI50 [1] [µM],GI50 [2] [µM],GI50 [3] [µM],GI50 [4] [µM],GI50 [5] [µM],GI50 [6] [µM],GI50 [7] [µM],Compound,GI50 [8] [µM],GI50 [9] [µM],inhibition at 25 µM [12] [%],inhibition at 25 µM [13] [%],inhibition at 25 µM [14] [%],inhibition at 25 µM [15] [%],inhibition at 25 µM [16] [%],inhibition at 25 µM [17] [%],inhibition at 25 µM [18] [%],inhibition at 25 µM [19] [%],inhibition at 25 µM [20] [%],inhibition at 25 µM [21] [%],"inhibition at 72 h, 25 µM [22] [%]",further results
2.2,4.3,7.4,3,3.3,2.1,4,O=C1NC(/C=C/c2ccco2)Nc2ccccc21 (stereo not drawn),2.6,3,90,99,83,> 100,93,> 100,100,100,100,93,100,GI50 [10]: 3.6 µM; GI50 at 72 h [11]: 3.4 µM
7.6,23,11,4.7,15,7.4,25,O=C1NC(c2cccs2)Nc2ccccc21 (stereo not drawn),9.3,23,90,56,91,98,88,> 100,57,91,60,74,84,GI50 [10]: 18 µM; GI50 at 72 h [11]: 15 µM
13,> 50,2.9,4.2,14,7.1,> 50,CCCCCCCCC1NC(=O)c2ccccc2N1 (stereo not drawn),9.2,13,93,39,> 100,96,61,91,53,85,77,75,80,GI50 [10]: 12 µM; GI50 at 72 h [11]: 11 µM
9.7,> 50,8.4,15,> 50,> 50,35,CC(C)(C)c1ccc(C2NC(=O)c3ccccc3N2)cc1 (stereo not drawn),20,> 50,79,40,> 100,63,44,32,47,47,46,60,53,GI50 [10]: 14 µM; GI50 at 72 h [11]: 19 µM
0.35,0.48,0.22,0.3,0.37,0.28,0.35,O=c1[nH]c(/C=C/c2ccc(O)cc2)nc2ccccc12,0.25,0.29,> 100,> 100,> 100,> 100,> 100,> 100,> 100,> 100,> 100,> 100,> 100,GI50 [10]: 0.34 µM; GI50 at 72 h [11]: 0.38 µM
3.8,32,2.2,4.8,7.2,6.2,16,COC(=O)c1cccc(/C=C/c2nc3ccccc3c(=O)[nH]2)c1,8.5,5.5,40,11,77,16,34,8,32,47,43,39,48,GI50 [10]: 5.6 µM; GI50 at 72 h [11]: 8.5 µM
2.6,5.7,8.5,5,4.7,8.2,3.1,O=C1NC(/C(Br)=C/c2ccccc2)Nc2ccccc21 (stereo not drawn),10,12,> 100,95,> 100,94,97,> 100,> 100,87,> 100,81,99,GI50 [10]: 12 µM; GI50 at 72 h [11]: 2.9 µM
3.9,3.2,2.7,2.7,2.5,4.9,2.8,N#Cc1ccc2[nH]cc(-c3nc4ccccc4c(=O)[nH]3)c2c1,3.4,2.8,,,,,,,,,,,,GI50 [10]: 3.5 µM; GI50 at 72 h [11]: 3.5 µM
